Tests used:
[1] = target: T1, Alpha-2A adrenergic receptor (Homo sapiens, UniProt P08913); format: functional, cell-based
T1 sequence (P08913 whole entry): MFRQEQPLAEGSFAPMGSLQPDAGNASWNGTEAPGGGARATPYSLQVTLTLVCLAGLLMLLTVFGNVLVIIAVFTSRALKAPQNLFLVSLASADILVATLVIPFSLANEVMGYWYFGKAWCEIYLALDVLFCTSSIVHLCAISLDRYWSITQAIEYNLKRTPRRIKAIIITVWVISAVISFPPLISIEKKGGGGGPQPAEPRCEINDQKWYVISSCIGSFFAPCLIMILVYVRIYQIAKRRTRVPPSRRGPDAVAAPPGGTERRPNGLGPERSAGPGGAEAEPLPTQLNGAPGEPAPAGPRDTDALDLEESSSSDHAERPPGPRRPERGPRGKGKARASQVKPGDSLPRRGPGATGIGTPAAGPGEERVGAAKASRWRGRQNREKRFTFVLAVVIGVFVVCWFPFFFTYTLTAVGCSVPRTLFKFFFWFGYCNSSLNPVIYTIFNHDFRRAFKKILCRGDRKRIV

[2] = target: Beta-2 adrenergic receptor (Homo sapiens, UniProt P07550)
Beta-2 adrenergic receptor, sequence (P07550 whole entry): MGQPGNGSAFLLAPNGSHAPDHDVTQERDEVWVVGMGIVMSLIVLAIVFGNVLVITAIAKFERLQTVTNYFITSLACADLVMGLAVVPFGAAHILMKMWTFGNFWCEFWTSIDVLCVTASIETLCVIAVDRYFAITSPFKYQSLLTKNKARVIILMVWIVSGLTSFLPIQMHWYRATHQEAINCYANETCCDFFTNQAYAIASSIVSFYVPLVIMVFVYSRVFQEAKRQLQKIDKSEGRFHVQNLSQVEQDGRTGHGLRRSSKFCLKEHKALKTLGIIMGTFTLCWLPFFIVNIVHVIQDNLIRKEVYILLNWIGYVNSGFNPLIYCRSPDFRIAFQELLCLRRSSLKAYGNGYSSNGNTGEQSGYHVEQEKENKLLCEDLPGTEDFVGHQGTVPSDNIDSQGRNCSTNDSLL

Vasopressin V2 receptor = Vasopressin V2 receptor (Homo sapiens, UniProt P30518)
Vasopressin V2 receptor, sequence (P30518 whole entry): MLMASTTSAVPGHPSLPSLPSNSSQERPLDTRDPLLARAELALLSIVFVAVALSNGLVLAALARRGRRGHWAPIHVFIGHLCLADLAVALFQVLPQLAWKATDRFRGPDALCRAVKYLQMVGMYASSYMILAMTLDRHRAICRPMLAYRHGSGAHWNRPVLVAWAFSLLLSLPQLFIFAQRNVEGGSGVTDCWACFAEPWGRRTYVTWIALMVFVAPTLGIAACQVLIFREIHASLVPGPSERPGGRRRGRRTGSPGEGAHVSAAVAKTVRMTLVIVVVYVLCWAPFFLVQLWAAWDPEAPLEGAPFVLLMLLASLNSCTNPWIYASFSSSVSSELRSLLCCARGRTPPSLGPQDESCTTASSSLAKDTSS

[3] = target: T2, Cholecystokinin receptor type A (Homo sapiens, UniProt P32238)
T2 sequence (P32238 whole entry): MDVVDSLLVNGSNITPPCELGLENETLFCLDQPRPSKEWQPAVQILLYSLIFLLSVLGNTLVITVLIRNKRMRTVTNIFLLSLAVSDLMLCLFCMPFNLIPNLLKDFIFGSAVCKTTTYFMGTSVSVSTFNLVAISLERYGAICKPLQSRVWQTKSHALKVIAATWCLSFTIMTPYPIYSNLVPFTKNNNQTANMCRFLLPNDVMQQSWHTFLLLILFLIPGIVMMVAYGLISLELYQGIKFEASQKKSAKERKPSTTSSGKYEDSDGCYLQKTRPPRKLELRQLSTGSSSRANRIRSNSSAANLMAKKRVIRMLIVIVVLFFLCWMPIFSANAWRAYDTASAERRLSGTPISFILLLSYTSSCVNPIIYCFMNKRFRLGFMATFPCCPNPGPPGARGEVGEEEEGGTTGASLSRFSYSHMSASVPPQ

Cannabinoid receptor 1 = Cannabinoid receptor 1 (Homo sapiens, UniProt P21554); format: functional, cell-based
Cannabinoid receptor 1, sequence (P21554 whole entry): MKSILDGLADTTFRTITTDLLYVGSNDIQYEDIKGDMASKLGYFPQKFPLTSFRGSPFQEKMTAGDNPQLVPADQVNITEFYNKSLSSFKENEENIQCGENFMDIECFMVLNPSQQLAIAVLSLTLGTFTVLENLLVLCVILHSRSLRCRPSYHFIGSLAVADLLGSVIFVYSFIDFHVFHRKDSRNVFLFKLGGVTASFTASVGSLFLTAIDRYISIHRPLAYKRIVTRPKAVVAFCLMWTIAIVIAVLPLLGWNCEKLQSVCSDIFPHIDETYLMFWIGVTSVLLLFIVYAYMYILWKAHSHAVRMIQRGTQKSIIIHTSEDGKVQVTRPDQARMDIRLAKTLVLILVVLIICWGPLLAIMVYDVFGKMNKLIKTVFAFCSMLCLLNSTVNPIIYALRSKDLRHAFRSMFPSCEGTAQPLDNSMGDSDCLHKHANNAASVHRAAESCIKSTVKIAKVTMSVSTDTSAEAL

[4] = target: Glutamate receptor ionotropic, NMDA 1 (Rattus norvegicus, UniProt P35439)
[5] = target: T3, 5-hydroxytryptamine receptor 2C (Homo sapiens, UniProt P28335)
T3 sequence (P28335 whole entry): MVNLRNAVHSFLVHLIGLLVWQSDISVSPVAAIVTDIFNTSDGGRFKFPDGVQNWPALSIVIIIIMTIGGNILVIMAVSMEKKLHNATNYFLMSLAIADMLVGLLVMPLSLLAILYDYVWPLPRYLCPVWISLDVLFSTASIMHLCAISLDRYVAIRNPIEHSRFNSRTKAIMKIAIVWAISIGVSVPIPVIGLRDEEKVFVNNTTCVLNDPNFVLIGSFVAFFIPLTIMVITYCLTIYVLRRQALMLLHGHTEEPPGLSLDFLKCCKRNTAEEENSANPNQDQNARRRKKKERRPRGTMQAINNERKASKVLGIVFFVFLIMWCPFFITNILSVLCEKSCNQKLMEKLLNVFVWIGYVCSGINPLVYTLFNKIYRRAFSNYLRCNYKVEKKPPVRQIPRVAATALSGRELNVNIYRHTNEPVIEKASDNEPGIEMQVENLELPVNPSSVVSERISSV

Melanocortin receptor 3 = Melanocortin receptor 3 (Homo sapiens, UniProt P41968)
Melanocortin receptor 3, sequence (P41968 whole entry): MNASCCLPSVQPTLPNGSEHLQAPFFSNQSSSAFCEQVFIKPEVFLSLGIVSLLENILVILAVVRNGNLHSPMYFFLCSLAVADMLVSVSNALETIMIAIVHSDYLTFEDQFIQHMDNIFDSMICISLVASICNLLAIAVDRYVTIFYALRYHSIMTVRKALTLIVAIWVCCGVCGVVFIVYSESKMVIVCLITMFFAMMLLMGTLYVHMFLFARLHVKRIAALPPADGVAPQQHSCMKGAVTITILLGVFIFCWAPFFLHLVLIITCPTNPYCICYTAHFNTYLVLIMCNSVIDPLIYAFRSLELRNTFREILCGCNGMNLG

[6] = target: T4, Neuropeptide Y receptor type 1 (Homo sapiens, UniProt P25929)
T4 sequence (P25929 whole entry): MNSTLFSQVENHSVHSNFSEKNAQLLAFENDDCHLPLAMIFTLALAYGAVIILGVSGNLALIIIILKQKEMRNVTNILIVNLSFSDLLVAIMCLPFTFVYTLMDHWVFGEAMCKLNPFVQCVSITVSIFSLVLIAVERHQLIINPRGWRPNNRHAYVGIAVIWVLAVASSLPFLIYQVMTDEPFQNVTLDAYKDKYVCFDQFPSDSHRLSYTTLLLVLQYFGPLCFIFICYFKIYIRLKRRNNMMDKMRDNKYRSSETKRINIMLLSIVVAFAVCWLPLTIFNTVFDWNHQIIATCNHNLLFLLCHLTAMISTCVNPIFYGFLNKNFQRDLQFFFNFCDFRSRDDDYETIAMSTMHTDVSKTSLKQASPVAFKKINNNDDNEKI

[7] = target: Sodium-dependent dopamine transporter (Homo sapiens, UniProt Q01959)
Sodium-dependent dopamine transporter, sequence (Q01959 whole entry): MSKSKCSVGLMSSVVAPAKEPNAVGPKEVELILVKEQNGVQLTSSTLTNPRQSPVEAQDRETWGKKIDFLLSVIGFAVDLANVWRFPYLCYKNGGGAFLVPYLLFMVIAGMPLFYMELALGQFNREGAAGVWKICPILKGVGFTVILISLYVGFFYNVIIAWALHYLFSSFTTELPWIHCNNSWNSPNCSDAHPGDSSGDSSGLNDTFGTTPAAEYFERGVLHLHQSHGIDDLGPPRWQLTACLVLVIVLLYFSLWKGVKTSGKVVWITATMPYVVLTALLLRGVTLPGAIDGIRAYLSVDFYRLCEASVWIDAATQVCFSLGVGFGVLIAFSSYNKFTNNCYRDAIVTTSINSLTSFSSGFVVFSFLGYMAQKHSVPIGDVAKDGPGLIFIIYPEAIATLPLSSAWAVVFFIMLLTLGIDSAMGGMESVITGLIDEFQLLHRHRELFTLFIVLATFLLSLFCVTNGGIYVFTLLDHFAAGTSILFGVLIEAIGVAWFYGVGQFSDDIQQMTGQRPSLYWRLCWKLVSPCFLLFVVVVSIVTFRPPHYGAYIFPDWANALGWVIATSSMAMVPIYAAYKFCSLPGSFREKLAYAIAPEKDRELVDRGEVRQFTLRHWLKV

[8] = target: T5, Amine oxidase [flavin-containing] A (Homo sapiens, UniProt P21397); format: functional
T5 sequence (P21397 whole entry): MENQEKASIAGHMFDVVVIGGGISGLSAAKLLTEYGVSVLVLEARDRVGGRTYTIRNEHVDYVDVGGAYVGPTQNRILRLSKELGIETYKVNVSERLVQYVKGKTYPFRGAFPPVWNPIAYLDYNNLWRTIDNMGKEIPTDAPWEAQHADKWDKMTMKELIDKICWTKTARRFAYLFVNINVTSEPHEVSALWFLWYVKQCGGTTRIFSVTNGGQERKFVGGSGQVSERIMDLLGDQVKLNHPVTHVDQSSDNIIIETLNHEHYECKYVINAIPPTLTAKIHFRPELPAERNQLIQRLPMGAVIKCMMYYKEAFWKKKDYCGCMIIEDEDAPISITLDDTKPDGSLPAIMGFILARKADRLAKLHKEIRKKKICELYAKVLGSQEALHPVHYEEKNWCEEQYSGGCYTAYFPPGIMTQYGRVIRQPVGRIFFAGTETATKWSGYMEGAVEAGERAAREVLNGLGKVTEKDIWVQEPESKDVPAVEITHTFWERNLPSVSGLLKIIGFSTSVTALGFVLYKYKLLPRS

Histamine H3 receptor = Histamine H3 receptor (Homo sapiens, UniProt Q9Y5N1)
Histamine H3 receptor, sequence (Q9Y5N1 whole entry): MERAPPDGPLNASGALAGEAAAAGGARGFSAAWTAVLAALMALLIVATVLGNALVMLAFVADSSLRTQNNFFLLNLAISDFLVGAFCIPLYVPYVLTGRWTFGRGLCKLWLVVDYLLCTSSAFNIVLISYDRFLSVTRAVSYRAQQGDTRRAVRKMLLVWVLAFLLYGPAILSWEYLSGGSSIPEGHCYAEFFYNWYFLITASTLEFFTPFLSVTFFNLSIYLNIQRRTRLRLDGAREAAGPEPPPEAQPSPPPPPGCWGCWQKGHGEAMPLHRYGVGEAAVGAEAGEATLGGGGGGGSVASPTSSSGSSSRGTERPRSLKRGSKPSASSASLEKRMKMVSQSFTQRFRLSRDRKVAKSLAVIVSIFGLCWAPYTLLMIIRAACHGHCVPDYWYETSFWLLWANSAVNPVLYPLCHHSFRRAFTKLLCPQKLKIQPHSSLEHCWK
Also: assay procedure not described here.

| SMILES | AC50 [1] [µM] | AC50 [2] [µM] | AC50 (Vasopressin V2 receptor) [µM] | AC50 [3] [µM] | AC50 (Cannabinoid receptor 1) [µM] | AC50 [4] [µM] | AC50 [5] [µM] | AC50 (Melanocortin receptor 3) [µM] | AC50 [6] [µM] | AC50 [7] [µM] | AC50 [8] [µM] | AC50 (Histamine H3 receptor) [µM] |
| --- | --- | --- | --- | --- | --- | --- | --- | --- | --- | --- | --- | --- |
| CCCCCCOc1ccccc1C(N)=O [EXALAMIDE] | 13 | > 30 | > 30 | > 30 | > 30 | > 30 | > 30 | > 30 | > 30 | 14 | > 30 | > 30 |
| CC[C@@H]1C(=O)OC[C@@H]1Cc1cncn1C [PILOCARPINE] | > 10 | > 10 | > 30 | > 30 | > 30 | > 10 | > 30 | > 30 | > 30 | > 30 | > 10 | > 10 |
| OC(CNCC(O)C1CCc2cc(F)ccc2O1)C1CCc2cc(F)ccc2O1 (stereo not given) [NEBIVOLOL] | > 30 | 0.07 | 29 | > 30 | > 30 | > 30 | 20 | 8.7 | 24 | 3.2 | > 30 | 23 |
| CCCCc1ncc(/C=C(\Cc2cccs2)C(=O)O)n1Cc1ccc(C(=O)O)cc1 [EPROSARTAN] | > 10 | > 10 | > 30 | > 30 | > 30 | > 10 | > 10 | > 10 | > 10 | > 30 | > 10 | > 10 |
| CC(=O)O[C@H]1C[C@@H]2CC[C@@H]3[C@H](CC[C@@]4(C)[C@H]3C[C@H]([N+]3(C)CCCCC3)[C@@H]4OC(C)=O)[C@@]2(C)C[C@@H]1N1CCCCC1 [VECURONIUM] | > 30 | > 30 | > 30 | > 30 | > 30 | > 30 | > 30 | > 30 | > 30 | > 30 | > 30 | 18 |
| COc1ccc(CCN(C)CCCC(C#N)(c2cc(OC)c(OC)c(OC)c2)C(C)C)cc1OC (stereo not given) [GALLOPAMIL] | > 30 | > 30 | > 30 | > 30 | > 30 | > 30 | 5 | > 30 | > 30 | > 30 | > 30 | > 30 |
| CN1C(=O)C(O)N=C(c2ccccc2Cl)c2cc(Cl)ccc21 (stereo not given) [LORMETAZEPAM] | 16 | > 30 | > 30 | > 30 | > 30 | > 30 | > 30 | > 30 | > 30 | > 30 | > 30 | > 30 |
| COc1ccccc1N1CCN(CCCNc2cc(=O)n(C)c(=O)n2C)CC1 | > 30 | 0.8 | > 30 | > 30 | > 30 | > 30 | > 30 | > 30 | > 30 | > 30 | > 30 | > 30 |
| CCOC(=O)[C@H](CCc1ccccc1)N[C@@H](C)C(=O)N1C(=O)N(C)C[C@H]1C(=O)O | > 30 | > 30 | > 30 | > 30 | > 30 | > 30 | > 30 | > 30 | > 30 | > 30 | > 30 | > 30 |
| COc1ccc2c3c1O[C@H]1C(=O)CC[C@@]4(O)[C@@H](C2)N(C)CC[C@]314 [OXYCODONE] | > 30 | > 30 | > 30 | > 30 | > 30 | > 30 | > 30 | > 30 | > 30 | > 30 | > 30 | > 30 |
| CC(C[N+](C)(C)C)OC(N)=O (stereo not given) [BETHANECHOL] | > 10 | > 10 | > 10 | > 10 | > 30 | > 10 | > 30 | > 10 | > 10 | > 10 | > 10 | > 10 |
| CC(CC(c1ccccc1)c1ccccc1)NC(C)(C)C (stereo not given) [TERODILINE] | > 30 | > 30 | > 30 | > 30 | > 30 | > 30 | > 30 | > 30 | > 30 | 20 | > 30 | > 30 |
| O=C(O)CCCCCCNC1c2ccccc2CCc2ccccc21 [AMINEPTINE] | > 30 | > 30 | > 30 | > 30 | > 30 | > 30 | 0.17 | > 30 | > 30 | 1.5 | > 30 | > 30 |
| C#C[C@]1(O)CC[C@H]2[C@@H]3CCC4=Cc5oncc5C[C@]4(C)[C@H]3CC[C@@]21C [DANAZOL] | > 10 | > 10 | > 10 | > 10 | > 30 | > 10 | > 30 | > 10 | > 10 | > 10 | > 10 | > 10 |
| CN1C(=O)C(O)N=C(c2ccccc2)c2cc(Cl)ccc21 (stereo not given) [TEMAZEPAM] | > 10 | > 10 | > 30 | > 30 | > 30 | > 10 | > 30 | > 30 | > 30 | > 10 | > 10 | > 10 |

From ChEMBL document CHEMBL5291721, “A preclinical secondary pharmacology resource illuminates target-adverse drug reaction associations of marketed drugs” (Nat Commun, 2023)
